Measured values: US8975246B2, “Bile acid or bile salt fatty acid conjugates” (Galmed Research and Development Ltd., priority 2001, dated 2015)

Columns and labels:
Assay type in all cases: in vivo
Wistar male rats = experiment: Fasting blood glucose, rats on regular or high fat diet; conditions: 4 weeks
Procedure: (§1) The effects of BAFACs on fasting blood glucose were tested in 3 animal species: Hamsters, Rats and Mice. The animals were kept on regular or high fat diets (as specified). In each group half of the animals received a daily BAFAC dose (150 mg/kg) dispersed in 0.5 ml of saline by gavage. The other half received similarly, by gavage, an equal volume of saline only. All animals were kept on a 12 hr day/night cycle at 22° C. throughout the experiment. They had access to water ad libidum.
Wistar male rats 4 weeks old (100-120 gm) were fed a regular chow diet or a high fat diet enriched with lard (10%), cholesterol (2.5%) and cholic acid (0.5%) (w/w). Blood and organ samples were obtained after sacrifice (in the fasting state) after 4 weeks of the trial. Half of the animals in each group were given BAFAC 150 mg/kg; the others were given an equal volume of saline. There were 7 rats in the control and test groups on a regular diet and 6 rats in each group given a high fat diet.
(§2) The hamsters and rats on the high fat diets developed fatty liver (confirmed by chemical measurement of liver fat), a high fasting blood glucose, and represented models of NIDDM.
(§3) ICR male mice, 4 weeks old (approx. 20 gm) were fed a regular diet. Streptozotocin 200 mg/kg was injected i.p. on the first day of the experiment. (This induced damage to the islet cells of the pancreas and simulated IDDM). […]

human patients [1] = experiment: Human study: change in weight; set-up: Change in Weight, Mean / Change in Weight, Median / Change in Weight, Max: unit not given here; conditions: for Change in Weight, Max / Change in Weight, Mean / Change in Weight, Median / Change in Weight, Min: 3 months
Procedure: (§4) The effects of BAFACs on disorders associated with Fatty liver, insulin resistance and altered glucose metabolism were tested on 60 human patients. Experiments were subdivided to 2 dosage regimens: Aramchol 300 mg daily (high dose) and 100 mg daily (low dose) respectively for a total period time of 3 months. The Aramchol:placebo ratio is of 2:1 for the low dose arm, and 1:1 for the high dose arms.
(§5) The study period included a 3 month treatment period with Aramchol low dose, or Aramchol high dose, or placebo, and a one month follow-up period. Aramchol was given daily orally. During the treatment period, all patients attended periodic […] (at first month) and subsequently monthly study-center visits in order to assess safety and efficacy of the treatment.
(§6) The results are shown using two known in the art principle statistical evaluation on, Intention-To-Treat (ITT) and Per Protocol (PP) populations. The ITT principle asserts that the effect of a treatment policy can be best assessed by evaluation on the basis of the intention to treat a subject (i.e. the planned treatment regimen) rather than the actual treatment given. It has the consequence that subjects allocated to a treatment group should be followed up, assessed and analyzed as members of that group irrespective of their compliance to the planned course of treatment. […] Compliance covers such considerations as exposure to treatment, availability of measurements and absence of major protocol violations.

human patients [2] = experiment: Human study: change in glucose; set-up: Change from Baseline in Glucose, Mean / Change from Baseline in Glucose, Median / Change from Baseline in Glucose, Max: unit not given here
Procedure: as §4, §5, §6

[3] = test system: Golden Syrian Male Hamsters; experiment: Fasting blood glucose, hamsters on fatty liver diet (NIDDM model); conditions: BAFAC 150 mg/kg/day by gavage, 3 weeks, vs saline
Procedure: as §1
Golden Syrian male hamsters 4 weeks old (90-100 gm) were fed a fatty liver diet consisting of cholesterol (1%), palmitic acid (1.2%), butter (6%), lard (10%), and corn oil (2%) added (w/w) to their regular diet. Blood glucose was measured at sacrifice in the fasting state after 3 weeks of the trial. There were 5 control and 5 test animals.
as §2
as §3, with “IDDM). Fasting blood glucose was obtained from sacrificed animals after 16 days of the trial. There were 3 groups of 7 animals each. Controls—regular diet only.” for “IDDM).”

ICR male mice = experiment: Fasting blood glucose, streptozotocin treated mice (IDDM model); conditions: Streptozotocin 200 mg/kg i.p., regular diet, BAFAC 150 mg/kg/day by gavage, 16 days
Procedure: as §1
ICR male mice, 4 weeks old (approx. 20 gm) were fed a regular diet. Streptozotocin 200 mg/kg was injected i.p. on the first day of the experiment. (This induced damage to the islet cells of the pancreas and simulated IDDM). Fasting blood glucose was obtained from sacrificed animals after 16 days of the trial. There were 3 groups of 7 animals each. Controls—regular diet only. Streptozotocin (Stz) treated animals receiving saline only by gavage and streptozocin treated animals receiving 150 mg/kg/day of BAFAC by gavage. The BAFAC used in all these hyperglycemia studies was a conjugate of arachidic and cholic acid (at position 3) using an amide bond (C-20 BAFAC, Aramchol).

human patients [4] = experiment: Human study: safety; conditions: Aramchol at 300 and 100 mg/d oral, 3 months, vs placebo
Procedure: as §4, §5
No changes in adverse events or in vital signs were observed between the groups.

[5] = Aramchol 100 mg/d, Visit 3, ITT
[6] = Aramchol 100 mg/d, Visit 4, ITT
[7] = Aramchol 100 mg/d, Visit 5, ITT
[8] = Aramchol 100 mg/d, Visit 6, ITT
[9] = Aramchol 100 mg/d, Visit 7, ITT
[10] = Aramchol 300 mg/d, Visit 3, ITT
[11] = Aramchol 300 mg/d, Visit 4, ITT
[12] = Aramchol 300 mg/d, Visit 5, ITT
[13] = Aramchol 300 mg/d, Visit 6, ITT
[14] = Aramchol 300 mg/d, Visit 7, ITT

## CCCCCCCCCCCCCCCCCCCC(=O)N[C@H]1CC[C@@]2(C)[C@@H](C1)C[C@@H](O)[C@@H]1[C@@H]2C[C@H](O)[C@]2(C)[C@@H]([C@H](C)CCC(=O)O)CC[C@@H]12 [Aramchol, 3β-arachidylamido-7α,12α-dihydroxy-5β-cholan-24-oic acid]
Wistar male rats; high fat diet (fatty liver), BAFAC 150 mg/kg by gavage, vs saline
  fasting blood glucose: markedly reduced
Wistar male rats; normal (regular) diet, no hyperglycemia or fatty liver, BAFAC 150 mg/kg
  blood glucose: no effect
Human patients [1]; Aramchol 100 mg/d oral, ITT
  Change in Weight, Max: 4.00
  Change in Weight, Mean: 0.18
  Change in Weight, Median: 0.00
  Change in Weight, Min: −5.00
Human patients [1]; Aramchol 100 mg/d oral, PP
  Change in Weight, Max: 4.00
  Change in Weight, Mean: 0.08
  Change in Weight, Median: 0.00
  Change in Weight, Min: −5.00
Human patients [1]; Aramchol 300 mg/d oral, ITT
  Change in Weight, Max: 3.50
  Change in Weight, Mean: −1.15
  Change in Weight, Median: −1.25
  Change in Weight, Min: −4.40
Human patients [1]; Aramchol 300 mg/d oral, PP
  Change in Weight, Max: 3.50
  Change in Weight, Mean: −1.15
  Change in Weight, Median: −1.25
  Change in Weight, Min: −4.40
Human patients [1]; Aramchol 300 mg/d, tested subjects, Tables 9 and 10
  body weight (in words): reduces body weight
Human patients [2]; [5]
  Change from Baseline in Glucose, Max: 17.0
  Change from Baseline in Glucose, Mean: −2.0
  Change from Baseline in Glucose, Median: 0.0
  Change from Baseline in Glucose, Min: −38.0
Human patients [2]; [6]
  Change from Baseline in Glucose, Max: 16.0
  Change from Baseline in Glucose, Mean: −2.2
  Change from Baseline in Glucose, Median: 1.0
  Change from Baseline in Glucose, Min: −33.0
Human patients [2]; [7]
  Change from Baseline in Glucose, Max: 21.0
  Change from Baseline in Glucose, Mean: −1.0
  Change from Baseline in Glucose, Median: 0.5
  Change from Baseline in Glucose, Min: −30.0
Human patients [2]; [8]
  Change from Baseline in Glucose, Max: 39.0
  Change from Baseline in Glucose, Mean: −1.1
  Change from Baseline in Glucose, Median: −2.0
  Change from Baseline in Glucose, Min: −32.0
Human patients [2]; [9]
  Change from Baseline in Glucose, Max: 23.0
  Change from Baseline in Glucose, Mean: 0.8
  Change from Baseline in Glucose, Median: −1.0
  Change from Baseline in Glucose, Min: −41.0
Human patients [2]; [10]
  Change from Baseline in Glucose, Max: 19.0
  Change from Baseline in Glucose, Mean: −1.3
  Change from Baseline in Glucose, Median: 1.0
  Change from Baseline in Glucose, Min: −32.0
Human patients [2]; [11]
  Change from Baseline in Glucose, Max: 16.0
  Change from Baseline in Glucose, Mean: −2.4
  Change from Baseline in Glucose, Median: −1.5
  Change from Baseline in Glucose, Min: −24.0
Human patients [2]; [12]
  Change from Baseline in Glucose, Max: 18.0
  Change from Baseline in Glucose, Mean: −3.3
  Change from Baseline in Glucose, Median: −5.0
  Change from Baseline in Glucose, Min: −46.0
Human patients [2]; [13]
  Change from Baseline in Glucose, Max: 13.0
  Change from Baseline in Glucose, Mean: −2.0
  Change from Baseline in Glucose, Median: −2.5
  Change from Baseline in Glucose, Min: −22.0
Human patients [2]; [14]
  Change from Baseline in Glucose, Max: 82.0
  Change from Baseline in Glucose, Mean: 3.8
  Change from Baseline in Glucose, Median: 3.0
  Change from Baseline in Glucose, Min: −22.0
Human patients [2]; Aramchol 300 mg/d, tested subjects, Table 7
  glucose levels (in words): remarkably reduces glucose levels
[3]
  fasting blood glucose: markedly reduced
ICR male mice
  fasting blood glucose: markedly reduced
Human patients [4]
  Safety (adverse events, vital signs): not associated with any safety concerns
